The values that follow come from ChEMBL document CHEMBL3507680, “University of Dundee, Gates Library screen for HepG2 cell viability”.

The data set in a line: Human HepG2 cell viability assay in 384 well format. Format: toxicity, cell-based. Details: dose 125 nL, time 70.5 hour; concentration not given beside the values. The note with it: HepG2 cells, read-out: Inhibition.
Take `CCn1cc(CN2CCCCC2CCn2ccnc2C)cc1C#N` (stereo unspecified): the cytotoxicity at 70.5 h is -6.87%. Take `N#CCCN(CCC#N)C(=O)c1ccc(OCC2CC2)cc1`: the cytotoxicity at 70.5 h is -7.55%. Regarding `CCn1cc(S(=O)(=O)NCC(OC)c2cccc(Cl)c2)cn1` (stereo unspecified), the cytotoxicity at 70.5 h is -6.64%. Take `CCn1c(C2CCCNC2)nn(Cc2ccc(C(=O)NC)o2)c1=O` (stereo unspecified): the cytotoxicity at 70.5 h was -3.04%. Take `O=C(NCC(CO)Cc1ccc(Cl)cc1)c1ccncc1F` (stereo unspecified): the cytotoxicity at 70.5 h is -1.03%. `Cc1ncsc1CNc1ccn(Cc2ccccc2)n1`: the cytotoxicity at 70.5 h worked out at 6.63%. Next, `C[C@@H]1CN(Cc2nnc(-c3cccnc3)o2)CC[C@]1(C)O`: 6.07%; `COCCCNC(=O)c1c[nH]c2ccc(OC)cc12`: -1.45%.

For the compound `CCc1ccc(CN2CCN(C)c3ncccc3C2)o1`, the cytotoxicity at 70.5 h came to 24.1%. Consider `COc1ccccc1OCCNC(=O)NCc1nc(C)no1`, for which the cytotoxicity at 70.5 h was -6.75%. For the compound `COCc1nc2cc(NCc3ncc[nH]3)ccc2o1`, the cytotoxicity at 70.5 h is -3.38%. With `Cc1ccc(CNC(=O)NC2CCCN(c3ncccn3)C2)cn1` (stereo unspecified) the figure was -10%; with `COc1c(C)cnc(CN2CCOC(CNc3cccnn3)C2)c1C` (stereo unspecified), 3.14%. Next, `CCOc1cc(CN(C)Cc2ccccc2)ccc1OC(F)F`: -6.62%. With `O=C(Cc1ccsc1)N1C[C@H]2CCC[C@@]2(COCc2ccccn2)C1`, the cytotoxicity at 70.5 h was determined as 10.5%. Take `CCC1CN(CC(=O)NCCN2CCCCCC2)c2ccccc2S1` (stereo unspecified): the cytotoxicity at 70.5 h was -1.59%.

Turning to `Cc1nc(CN2C(=O)COC3(CCN(CC4CC4)CC3)C2C)cs1` (stereo unspecified), the cytotoxicity at 70.5 h amounted to 2.37%. As to `c1ccc(-c2nnc(CN3CCOC(Cn4cccn4)C3)o2)cc1` (stereo unspecified), the cytotoxicity at 70.5 h was -6.72%. For the compound `CN(C)CC1CN(Cc2nnc(C(C)(C)C)o2)CCO1` (stereo unspecified), the cytotoxicity at 70.5 h worked out at 11.9%. With `CCn1cc(NC(=O)NCC(c2ccc(OC)cc2)N(C)C)cn1` (stereo unspecified), the cytotoxicity at 70.5 h is -5.2%.

Consider `CN1CCCC(CCC(=O)NCCCn2ncc3ccccc32)C1` (stereo unspecified), for which the cytotoxicity at 70.5 h stood at 25.3%.

Take `Cc1nnc(CN(Cc2ccc(Cl)c(Cl)c2)C(C)C)o1`: the cytotoxicity at 70.5 h is -14%. With `Cc1cnc2c(c1)N(C(=O)c1ccc(=O)n(C)c1)CCO2` the figure was -2.79%; with `COc1cccc(N2CCN(CCC(=O)NC3CCCC3)CC2)c1`, -5.97%. Regarding `COc1c(C)cnc(CN2CCC(C(=O)N(C)C)CC2)c1C`, the cytotoxicity at 70.5 h is -23.8%. As for `Cn1cc(I)c(C(=O)NCCCn2cc(Br)cn2)n1`, the cytotoxicity at 70.5 h is 0.223%. Take `COCCCN(C)c1ncccc1I`: the cytotoxicity at 70.5 h came out at 8.68%.

`COCc1nnn2c1CN(C(=O)c1ccnnc1)CCC2`: the cytotoxicity at 70.5 h was 8.76%. Turning to `CCc1cnc(NC(=O)NC2CCN(C3CCCC3)CC2)s1`, the cytotoxicity at 70.5 h is -7.06%. With `Cc1c(NC(=O)NCCO)cccc1OC1CCCC1` the figure was -8.09%; with `Cc1ccnc(NC(=O)c2cnc(C3CCCNC3)cn2)c1` (stereo unspecified), -4.33%; with `CCCc1cc(C(=O)NCCCn2nnc3ccccc32)no1`, -6.64%. Next, `Cc1cc(CN2CCN(C(=O)NCCCc3cn[nH]c3C)CC2)on1`: -4.02%.

`CNC(=O)c1cc(-c2ccccc2OC)[nH]n1`: the cytotoxicity at 70.5 h was -5.34%. With `Cc1nn(C)c(C)c1C1CCCN1C(=O)Cc1cn2ccsc2n1` (stereo unspecified) the figure was 23.9%. Next, `Cc1ccc(C)c(OC(C)C(=O)NCc2cccnc2)c1` (stereo unspecified): -5.32%. With `CN(Cc1cc(C2CC2)on1)C(=O)C(c1cccnc1)N1CCCC1` (stereo unspecified) the figure was -1.03%; with `CN(C)C(=O)N1Cc2nnn(C)c2C(COCC2CC2)C1` (stereo unspecified), -6.79%; with `Cc1cc(NC(=O)CN(C)CC2CCCN2c2cccnn2)n(C)n1` (stereo unspecified), -5.26%. As for `CCn1c(CN(C)C)nnc1C1CCN(c2ccnc(C)c2)CC1`, the cytotoxicity at 70.5 h is -3.44%. As to `Cc1ccc(N2CCC(NCc3cnc(C4CCC4)s3)CC2)nc1`, the cytotoxicity at 70.5 h turned out to be 6.63%. With `CN(C)CCNC(=O)c1cc2n(n1)CCN(C(=O)CC(C)(C)C)C2` the figure was -9.74%.

For the compound `C[C@]1(O)CN(Cc2ccc(C(=O)O)cc2)CC[C@@H]1Oc1cccc(F)c1`, the cytotoxicity at 70.5 h is -10.9%. For the compound `Cc1n[nH]c(C)c1NC(=O)CCc1cccc(C2CCCN(C)C2)n1` (stereo unspecified), the cytotoxicity at 70.5 h is -3.99%.

Turning to `CC(C)[C@H](NC(=O)NC1CCS(=O)(=O)C1)C(=O)NCc1ccc(Cl)cc1` (stereo partly specified), the cytotoxicity at 70.5 h was -18.2%. With `Cn1cc(CN2CCC3(CCCCN3S(C)(=O)=O)CC2)cn1` the figure was -11.7%.

Consider `CCc1nc(C)c(C(C)N(C)CCOC)s1` (stereo unspecified), for which the cytotoxicity at 70.5 h stood at 10.1%.

On to `CNC(=O)N1CCC(=Cc2ccccc2)CC1`, for which the cytotoxicity at 70.5 h was -12%. Next, `CC(C)(C)OC(=O)NCCc1csc(N2CCCC2)n1`: -3.27%.

Take `Cc1ccc2nc(C)cc(C(=O)N3C[C@H]4CCC[C@@]4(CO)C3)c2c1`: the cytotoxicity at 70.5 h is -6.32%. Next, `O=C(CNc1cc2c(cc1Cl)OCCO2)NCC(F)(F)F`: -3.78%; `CC(C)(C(N)=O)S(=O)(=O)c1ccc(Br)cc1`: -6.61%. Next, `Cn1ncc2c(N3CCN(C(=O)c4ccsc4)CC3)ncnc21`: -4.15%; `O=C(NCCN1CCOCC1)c1cc(Cl)c2c(c1)OCCCO2`: -5.1%; `COCCn1c2c(ccc1=O)CCN(C(=O)NC1CC1)CC2`: -3.9%. With `NC(=O)CN1CCCN(C(=O)Cc2ccc(Br)cc2)CC1` the figure was -13.7%; with `CC(C)[C@H](NC(=O)N1CCN(c2ccc(Cl)cc2)CC1)C(=O)NC1CC1`, -17%.

Regarding `O=C1c2cccnc2OC(CN2CCOCC2)CN1C1CCC1` (stereo unspecified), the cytotoxicity at 70.5 h was -4.26%. Next, `CC/N=c1\nc(NCC)nc2n1C(O)(Nc1cc(Cl)ccc1Cl)CS2` (stereo unspecified): 17.8%; `CC(=O)N1CCN(C(C)c2ccc(Br)cc2)CC1` (stereo unspecified): -0.505%. Consider `CC(C(=O)N1CCN(c2ccc(F)cc2)CC1)n1cc(Br)cn1` (stereo unspecified), for which the cytotoxicity at 70.5 h is -8.98%. For `CS(=O)(=O)NC[C@]12COC[C@H]1CN(C(=O)c1ccncn1)C2`, the cytotoxicity at 70.5 h amounted to 15.5%. Next, `COc1ccccc1-c1ccccc1CC1(C(=O)O)CCNCC1`: 0.76%; `Cc1nccc([C@@H]2C[C@@H]3CCN(Cc4cccs4)C[C@H]3O2)n1`: 4.44%; `Cc1cc(CN(C)C(=O)NCC2CCS(=O)(=O)C2)no1` (stereo unspecified): -9.21%.

`CS(=O)(=O)c1cccc(S(=O)(=O)NC(=O)c2cscn2)c1`: the cytotoxicity at 70.5 h was -4.27%. For the compound `Cn1cc(C2CC(=O)NC23CCN(Cc2nccs2)CC3)cn1` (stereo unspecified), the cytotoxicity at 70.5 h is -9.24%. With `CNC(=O)c1cccnc1N1CCC(OCc2ccccc2)CC1` the figure was -19.8%; with `O=C(c1cc(C2CC2)[nH]n1)N1CCN(Cc2ccccc2)CC1`, -4.29%.

In the case of `CN1CCC(CNC(=O)CCSc2ccc3c(c2)OCCO3)C1` (stereo unspecified), the cytotoxicity at 70.5 h is -2.01%. As for `COCCN(C)C(=O)Nc1ccc2c(ccn2CC(=O)N(C)C)c1`, the cytotoxicity at 70.5 h is -3.43%. With `CO[C@H]1CN(C(=O)c2cccc(C)n2)CC[C@@]12CCCO2` the figure was -6.22%. `CCCN1CC2(CCN(C)CC2)CC1C(=O)NCCn1cc(C)cn1` (stereo unspecified): the cytotoxicity at 70.5 h was -4.52%. With `Cc1cnn(C(C)C2CC2)c1NC(=O)c1ccco1` (stereo unspecified) the figure was -3.4%; with `Fc1ccc(CN2CCOC[C@H](Oc3cccnc3)C2)cc1`, 10.5%. As for `COCCCNC(=O)CN(C)C(C)c1nc(C)no1` (stereo unspecified), the cytotoxicity at 70.5 h is -3.18%.

For the compound `CCOc1nnc(CN2CCN(CCOC)CC2)s1`, the cytotoxicity at 70.5 h stood at 16.4%. With `O=C(O)CCc1cccc(C2CCCN2Cc2ccc(F)c(F)c2)n1` (stereo unspecified) the figure was -6.64%; with `Cc1cnn(CCC(=O)Nc2ccc(F)cc2OCC2CC2)c1`, -12.1%.

`CC(C)[C@@H](CO)Nc1cc(-c2cn[nH]c2)ncn1`: the cytotoxicity at 70.5 h came to 0.985%.

`CS(=O)(=O)N1CCC(NC(=O)COc2ccc(Br)cc2Cl)CC1`: the cytotoxicity at 70.5 h was found to be 30.2%.

On to `COCCN(C)C(=O)Cn1cccc(OC)c1=O`, for which the cytotoxicity at 70.5 h is -9.38%. Regarding `Cc1nc(C2CCCN(C(=O)c3ccc(OCC4CC4)nc3)C2)no1` (stereo unspecified), the cytotoxicity at 70.5 h is -2.87%. On to `c1cc(CN2C[C@@H]3COC[C@]3(COCC3CC3)C2)ccn1`, for which the cytotoxicity at 70.5 h amounted to 11.6%.

In the case of `O=C(CCc1ccccc1)NCC1CCN(Cc2ccccc2)CC1`, the cytotoxicity at 70.5 h came to 0.0668%. With `Cc1ccc(NC2CCN(C(=O)c3ccnc(N(C)C)c3)CC2)nn1`, the cytotoxicity at 70.5 h was -22.6%. Next, `Cc1ccc(C(=O)N2CCc3ncc(Cn4cccn4)n3CC2)cn1`: -6.29%; `Cc1nccc(C2CN(Cc3ccc(-c4ccccc4C(=O)O)o3)C2)n1`: -2.56%; `CCc1nc2n(n1)CC(NCc1ccnc(-c3ccccc3)n1)CC2` (stereo unspecified): -10%. With `CCN(CC)CCN1CC[C@H]2OCC[C@@]2(C(=O)N2CCOCC2)C1` the figure was -14.8%; with `COCCC1(C(=O)O)CCCN(CCc2ccccc2)C1` (stereo unspecified), -7.32%. On to `c1csc(-c2nc(CNC3CCc4ncnn4C3)co2)c1` (stereo unspecified), for which the cytotoxicity at 70.5 h is -10%. With `CCCN1CCN(C(=O)Cc2cccnc2)[C@H]2CS(=O)(=O)C[C@H]21` the figure was 11.9%; with `CN(Cc1nc(Cc2cccc(C(F)(F)F)c2)no1)CC1CCCCO1` (stereo unspecified), -11.5%. For `COCc1cccc(CNC(=O)CNc2ccccc2C(C)=O)c1`, the cytotoxicity at 70.5 h is 1.21%.

For `O=C(c1ccc(-n2cnnc2)nc1)N1CCCC(O)(CO)CC1` (stereo unspecified), the cytotoxicity at 70.5 h was -22.7%. With `Cc1cc(C(=O)N2C[C@H]3CC[C@@H]2CN(C)C3)ccc1Cl` the figure was 29.4%. In the case of `Cc1ccc(N2CCN(Cc3ccccc3)C3(CCNCC3)C2=O)cn1`, the cytotoxicity at 70.5 h was -4.83%. Next, `Cn1nc(C(C)(C)C)cc1NC(=O)CSc1nnc[nH]1`: -4.97%; `Cn1ccc(C(=O)Nc2nccn2Cc2ccccc2Cl)cc1=O`: -7.59%; `NC(=O)c1ccc(CNC2CC2)cc1`: 16%.
